From PMC6211276, “Computer-aided molecular design of pyrazolotriazines targeting glycogen synthase kinase 3” (Journal of Enzyme Inhibition and Medicinal Chemistry, 2018)

Tests used:
GSK-3β [1] = target: T1, GSK-3β (Homo sapiens, UniProt P49841); test: Inhibition of GSK-3β (Kinase-Glo luminescent assay); type: biochemical; set-up: purchased Millipore (Millipore Ibérica SAU); settings: for GSK-3 inhibition at a fixed compound concentration: fixed compound concentration of 10 μM; for IC50: mean of three independent determinations, 1 μM ATP
Procedure: Human recombinant GSK-3β and the pre-phosphorylated polypeptide substrate were purchased from Millipore (Millipore Ibérica SAU). Kinase-Glo Luminescent Kinase Assay was obtained from Promega (Promega Biotech Ibérica, SL)[29]. ATP and all other reagents were from Sigma Aldrich (St. Louis, MO). Assay buffer contained 50 mM HEPES (pH 7.5), 1 mM EDTA, 1 mM EGTA, and 15 mM magnesium acetate.
The method of Baki et al. was followed to analyse the inhibition of GSK-3β[30]. Kinase-Glo assays were performed in assay buffer using black 96-well plates. In a typical assay, 10 μL (10 μM) of test compound (dissolved in dimethyl sulfoxide [DMSO] at 1 mM concentration and diluted in advance in assay buffer to the desired concentration) and 10 μL (20 ng) of enzyme were added to each well followed by 20 μL of assay buffer containing 25 μM substrate and 1 μM ATP. […] After 30 min incubation at 30 °C, the enzymatic reaction was stopped with 40 μL of Kinase-Glo reagent. Glow-type luminescence was recorded after 10 min using a FLUOstar Optima (BMG Labtechnologies GmbH, Offenburg, Germany) multimode reader. The activity is proportional to the difference of the total and consumed ATP. The inhibitory activities were calculated based on maximal activities measured in the absence of inhibitor.

[2] = In vitro parallel artificial membrane permeability assay (PAMPA-BBB); settings: for Papp at 4 h: pig, PAMPA, pH 7.4; for BBB prediction: predictive penetration in the CNS from PAMPA-BBB Pe; for ability to cross the BBB by passive permeation: prediction from PAMPA-BBB Pe
Procedure: Prediction of the brain penetration was evaluated using a parallel artificial membrane permeability assay (PAMPA). Ten commercial drugs, phosphate buffer saline solution at pH 7.4 (PBS), ethanol, and dodecane were purchased from Sigma Aldrich, Across organics and Fluka. […] Filter PDVF membrane units (diameter 30 mm, pore size 0.45 μm) from Symta were used to filter the samples. A 96-well plate UV, (Thermoscientific, Varioskan Lux multimode microplate reader) was used for the UV measurements. […] Then 100 μL of this compound stock solution was taken, and 1400 μL of ethanol and 3500 μL of PBS pH 7.4 buffer were added to reach 30% of ethanol concentration in the experiment. These solutions were filtered. The acceptor 96-well microplate was filled with 180 μL of PBS:ethanol (70:30). The donor 96-well plate was coated with 4 μL of porcine brain lipid in dodecane (20 mg mL^−1), and after 5 min, 180 μL of each compound solution was added. Then 1−2 mg of every compound to be determined for their ability to pass the brain barrier were dissolved in 1500 μL of ethanol and 3500 μL of PBS pH 7.4 buffer, filtered, and then added to the donor 96-well plate. […] During this time, the compounds diffused from the donor plate through the brain lipid membrane into the acceptor plate. After incubation, the donor plate was removed. The concentration of compounds and commercial drugs in the acceptor and the donor wells was determined by UV plate reader. Every sample was analysed at three to five wavelengths, in three wells and in three independent runs. […] Ten quality control compounds (previously mentioned) of known BBB permeability were included in each experiment to validate the analysis set.

GSK-3β [3] = target: T1, GSK-3β; test: Kinetic studies on GSK-3β (ADP-Glo Kinase Assay, varying ATP); type: biochemical; settings: inhibitor at 0.5 and 1 μM, ATP 1 to 50 μM, GS-2 constant at 12.5 μM; Lineweaver–Burk
Procedure: To investigate the inhibitory mechanism of compounds 5 on GSK-3β, several kinetic experiments were performed using the ADP-Glo Kinase Assay. Kinetic experiments varying both ATP (from 1 to 50 μM) and the inhibitor (at 0.5 and 1 μM) concentrations were performed, while the concentration of GS-2 was kept constant at 12.5 μM.

SH-SY5Y cells = test: Okadaic acid-induced tau hyperphosphorylation cell model (MTT cell viability); type: cell-based, human; settings: for cell viability (MTT test) in OA-induced neurodegeneration cell model: compound 10 µM for 1 h, then OA 30 nM for 24 h
Procedure: Human SH-SY5Y cells were grown in DMEM supplemented with 10% FBS and 1% penicillin/streptomycin at 37 °C and 5% CO2 in an incubator. SH-SY5Y cells were seeded onto 96-well plate at 60.000 cells per well. 48 h later, cells were pre-incubated with the compounds at the desired concentration for 1 h and after that time okadaic acid (OA) (Sigma Aldrich, catalogue no: 09381) was added at a concentration of 30 nM and incubated for another 24 h. Afterwards, cells were incubated with 0.5 mg mL^−1 MTT solution for at least 4 h at 37 °C and 5% CO2. Then culture media was removed and the formazan crystals attached to the bottom of the plate were dissolved with 200 µL of DMSO. Finally, UV-absorbance was measured at 595 nm in a microplate reader (Varioskan Flash Microplate reader, Thermo Scientific).

[4] = PAMPA-BBB, reported permeability; cited from earlier work

T1 sequence (P49841 whole entry): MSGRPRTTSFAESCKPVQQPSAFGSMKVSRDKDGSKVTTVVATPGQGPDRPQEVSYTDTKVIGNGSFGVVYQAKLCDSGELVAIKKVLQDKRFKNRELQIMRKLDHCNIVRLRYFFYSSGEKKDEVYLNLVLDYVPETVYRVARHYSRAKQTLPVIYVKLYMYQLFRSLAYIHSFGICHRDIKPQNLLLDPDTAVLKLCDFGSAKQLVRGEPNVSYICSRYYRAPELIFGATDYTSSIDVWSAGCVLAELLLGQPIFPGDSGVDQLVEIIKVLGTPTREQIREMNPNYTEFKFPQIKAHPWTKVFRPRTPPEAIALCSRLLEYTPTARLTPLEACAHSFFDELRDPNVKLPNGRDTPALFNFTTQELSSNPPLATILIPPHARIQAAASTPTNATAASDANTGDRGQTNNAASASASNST

| Structure (SMILES) | Papp at 4 h [2] [×10⁻⁶ cm/s] | IC50 (GSK-3β [1]) [nM] | melting point | BBB prediction [2] | further results |
| --- | --- | --- | --- | --- | --- |
| O=c1[nH]nnc2c1cnn2-c1ccccc1 [4a] | – | – | – | – | GSK-3 inhibition at a fixed compound concentration (GSK-3β [1]): inactive |
| O=c1[nH]nnc2c1cnn2-c1ccc(F)cc1 [4e] | – | – | – | – | GSK-3 inhibition at a fixed compound concentration (GSK-3β [1]): inactive |
| CCOC(=O)c1c2nn[nH]c(=O)c2nn1-c1ccc(C)cc1 [5b, ethyl 4-oxo-6-(p-tolyl)-4,6-dihydro-3H-pyrazolo[4,3-d][1,2,3]triazine-7-carboxylate] | 2.3 ± 0.3 | 900 ± 100 | 193 to 196 °C | CNS+/− | type of inhibition on GSK-3 (GSK-3β [3]): ATP-competitive; cell viability (MTT test) in OA-induced neurodegeneration cell model (SH-SY5Y cells): able to increase the cell viability |
| CCOC(=O)c1c2nn[nH]c(=O)c2nn1-c1ccc(Br)cc1 [5f, ethyl 6-(4-bromophenyl)-4-oxo-4,6-dihydro-3H-pyrazolo[4,3-d][1,2,3]triazine-7-carboxylate] | 3.2 ± 0.1 | 1400 ± 400 | 195 °C (dec.) | CNS+ (CNS + when they present a permeability >3.1 × 10^−6 cm s^−1) | cell viability (MTT test) in OA-induced neurodegeneration cell model (SH-SY5Y cells): able to increase the cell viability; ability to cross the BBB by passive permeation [2]: would be able to cross the BBB by passive permeation |
| CCOC(=O)c1c2nn[nH]c(=O)c2nn1-c1ccc(I)cc1 [5g, ethyl 6-(4-iodophenyl)-4-oxo-4,6-dihydro-3H-pyrazolo[4,3-d][1,2,3]triazine-7-carboxylate] | 5 ± 1 | 800 ± 200 | 198 °C (dec.) | CNS+ (CNS + when they present a permeability >3.1 × 10^−6 cm s^−1) | cell viability (MTT test) in OA-induced neurodegeneration cell model (SH-SY5Y cells): able to increase the cell viability; ability to cross the BBB by passive permeation [2]: would be able to cross the BBB by passive permeation |
| Cn1c(=O)c2c(ncn2C)n(C)c1=O [Caffeine, reference compound] | 1.1 ± 0.4 | – | – | – | – |
| CNCCCN1c2ccccc2CCc2ccccc21 [Desipramine, reference compound] | 10.4 ± 0.1 | – | – | – | – |
| CCn1cc(C(=O)O)c(=O)c2cc(F)c(N3CCNCC3)nc21 [Enoxacine, reference compound] | 1.1 ± 0.6 | – | – | – | – |
| C=C1[C@@H](O)[C@@H]2O[C@]3(CC[C@H](/C=C/[C@@H](C)[C@@H]4CC(C)=C[C@@]5(O[C@H](C[C@@](C)(O)C(=O)O)CC[C@H]5O)O4)O3)CC[C@H]2O[C@@H]1[C@@H](O)C[C@H](C)[C@H]1O[C@@]2(CCCCO2)CC[C@H]1C [OA, okadaic acid, reference compound] | – | – | – | – | decrease in cell viability (SH-SY5Y cells; OA at 30 nM, MTT): higher than 70% |
| CN1C(C(=O)Nc2ccccn2)=C(O)c2ccccc2S1(=O)=O [Piroxicam] | – | – | – | – | Pe bibli. [4]: 2.5 10^−6 cm s^−1 |
| CN(C)CCCN1c2ccccc2Sc2ccccc21 [Promazine, reference compound] | 8.4 ± 0.3 | – | – | – | Pe bibli. [4]: 8.8 10^−6 cm s^−1 |
| Cn1sc(=O)n(Cc2ccccc2)c1=O [TDZD-8, reference compound] | – | – | – | – | cell viability (MTT test) in OA-induced neurodegeneration cell model (SH-SY5Y cells): increase the cell viability |

Second part, led by results:

| Papp at 4 h [2] [×10⁻⁶ cm/s] | Structure (SMILES) | IC50 (GSK-3β [1]) [nM] | melting point | BBB prediction [2] | further results |
| --- | --- | --- | --- | --- | --- |
| 1.1 ± 0.6 | CCOC(=O)c1c2nn[nH]c(=O)c2nn1-c1ccccc1 [5a, ethyl 4-oxo-6-phenyl-4,6-dihydro-3H-pyrazolo[4,3-d][1,2,3]triazine-7-carboxylate] | 4000 ± 200 | 191.5 to 193 °C | CNS− | – |
| 1.6 ± 0.5 | CCOC(=O)c1c2nn[nH]c(=O)c2nn1-c1ccc(OC)cc1 [5c, ethyl 6-(4-methoxyphenyl)-4-oxo-4,6-dihydro-3H-pyrazolo[4,3-d][1,2,3]triazine-7-carboxylate] | 1700 ± 300 | 194 °C (dec.) | CNS+/− | – |
| 2.9 ± 0.7 | CCOC(=O)c1c2nn[nH]c(=O)c2nn1-c1ccc(Cl)cc1 [5e, ethyl 6-(4-chlorophenyl)-4-oxo-4,6-dihydro-3H-pyrazolo[4,3-d][1,2,3]triazine-7-carboxylate] | 3300 ± 300 | 198 °C (dec.) | CNS+/− | ability to cross the BBB by passive permeation [2]: in the limit of a positive prediction |
